Results reported in ChEMBL document CHEMBL1130943, “Novel inhibitors of alpha 4 beta 1 integrin receptor interactions through library synthesis and screening” (Bioorg Med Chem Lett, 1998).

Legend:
Assay type in all cases: protein-complex assay
[1] = target: T1, Integrin alpha-4/beta-1 (Homo sapiens, UniProt P05556+P13612); assay: Inhibition of alpha4-beta1 integrin connecting segment 1 (CS1) splice variant binding interaction 100 uM
[2] = target: T1, Integrin alpha-4/beta-1; assay: Inhibition of alpha4-beta1 integrin connecting segment 1 (CS1) splice variant binding interaction
Target sequence in this assay (P05556 21-798 limits assumed, change not shown): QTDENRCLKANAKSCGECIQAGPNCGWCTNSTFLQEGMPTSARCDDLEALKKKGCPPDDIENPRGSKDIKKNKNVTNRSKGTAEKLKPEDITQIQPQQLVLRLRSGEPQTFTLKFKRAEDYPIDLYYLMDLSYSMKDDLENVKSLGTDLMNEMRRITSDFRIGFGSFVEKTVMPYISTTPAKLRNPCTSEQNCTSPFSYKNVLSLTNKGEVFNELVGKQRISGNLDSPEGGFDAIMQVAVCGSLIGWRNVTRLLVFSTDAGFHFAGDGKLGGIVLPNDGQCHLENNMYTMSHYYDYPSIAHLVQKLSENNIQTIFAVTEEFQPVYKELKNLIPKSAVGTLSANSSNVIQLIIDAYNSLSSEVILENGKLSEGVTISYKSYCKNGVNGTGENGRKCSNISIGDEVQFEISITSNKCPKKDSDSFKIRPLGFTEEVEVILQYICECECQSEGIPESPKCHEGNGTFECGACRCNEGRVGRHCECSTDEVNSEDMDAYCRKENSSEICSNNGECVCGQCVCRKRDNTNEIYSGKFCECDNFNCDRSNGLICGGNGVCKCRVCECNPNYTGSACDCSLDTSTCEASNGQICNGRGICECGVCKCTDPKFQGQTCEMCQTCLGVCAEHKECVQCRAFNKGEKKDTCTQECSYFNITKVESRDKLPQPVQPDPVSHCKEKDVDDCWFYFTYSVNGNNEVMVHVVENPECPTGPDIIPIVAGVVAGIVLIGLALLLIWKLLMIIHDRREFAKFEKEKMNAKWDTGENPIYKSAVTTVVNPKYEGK
Target sequence in this assay (P13612 34-1032 limits assumed, change not shown): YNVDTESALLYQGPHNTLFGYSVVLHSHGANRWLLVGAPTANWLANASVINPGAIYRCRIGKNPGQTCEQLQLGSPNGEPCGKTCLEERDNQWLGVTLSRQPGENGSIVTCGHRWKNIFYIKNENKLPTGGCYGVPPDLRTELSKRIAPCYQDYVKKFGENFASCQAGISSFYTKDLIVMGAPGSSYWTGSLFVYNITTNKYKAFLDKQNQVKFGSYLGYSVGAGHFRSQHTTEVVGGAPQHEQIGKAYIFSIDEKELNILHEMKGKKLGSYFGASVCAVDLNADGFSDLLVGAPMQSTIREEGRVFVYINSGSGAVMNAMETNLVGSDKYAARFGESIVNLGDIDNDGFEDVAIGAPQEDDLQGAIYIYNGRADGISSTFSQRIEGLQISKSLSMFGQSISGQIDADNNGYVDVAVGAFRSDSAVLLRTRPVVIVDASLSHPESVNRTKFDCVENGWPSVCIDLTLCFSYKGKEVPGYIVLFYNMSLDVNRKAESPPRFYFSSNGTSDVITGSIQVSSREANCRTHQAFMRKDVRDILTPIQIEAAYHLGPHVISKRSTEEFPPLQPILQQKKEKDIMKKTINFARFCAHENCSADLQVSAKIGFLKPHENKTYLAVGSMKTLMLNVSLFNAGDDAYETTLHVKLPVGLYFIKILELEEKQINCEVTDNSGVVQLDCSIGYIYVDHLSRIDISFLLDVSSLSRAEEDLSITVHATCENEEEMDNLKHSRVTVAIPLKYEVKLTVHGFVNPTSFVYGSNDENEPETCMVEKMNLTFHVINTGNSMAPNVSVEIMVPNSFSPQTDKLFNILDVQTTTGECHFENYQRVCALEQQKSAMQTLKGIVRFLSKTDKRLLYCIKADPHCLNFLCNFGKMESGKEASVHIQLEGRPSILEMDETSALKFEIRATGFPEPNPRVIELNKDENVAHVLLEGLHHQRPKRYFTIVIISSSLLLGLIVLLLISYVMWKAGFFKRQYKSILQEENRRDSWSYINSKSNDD

[3] = target: T1, Integrin alpha-4/beta-1; assay: Inhibition of alpha4-beta1 integrin connecting segment 1 (CS1) splice variant binding interaction at 100 uM

SMILES | inhibition [1] [%] | IC50 [2] [µM] | inhibition [3] [%]
O=C(O)CCN1CCS[C@@H](CC(=O)O)C(=O)N[C@@H](Cc2ccc(O)cc2)C1=O | 100 | 8 | 
CCCCN1CCS[C@@H](CC(=O)O)C(=O)N[C@@H](Cc2ccccc2)C1=O |  | > 100 | 41
O=C(O)CCN1CCS[C@H](CC(=O)O)C(=O)N[C@@H](Cc2ccc(O)cc2)C1=O |  | 5 | 100
CC(C)CCN1CCS[C@@H](CC(=O)O)C(=O)N[C@@H](Cc2ccccc2)C1=O |  | > 100 | 0
